Results on six compounds are retold here after patent publication US20230233580A1, “USE OF OXYGENATED CHOLESTEROL SULFATES FOR CANCERS AND NON-CANCEROUS TRANSFORMATIONS RELATED TO EPSTEIN-BARR VIRUS” (priority 2020, published 2023).

A value given as a limit tells only on which side of the number the result lay.

The nature of data set [1]: Metabolite profiling of plasma and feces, oral dose. The data set is classed as in vivo, rats. The conditions noted are these: oral 75 mg/kg. From the text: Radiolabeled components in plasma and feces extracts were profiled and identified using radio-high performance liquid chromatography (HPLC) and high performance liquid chromatography/mass spectrometry (HPLC/MS) methods.

The test system of data set [2] is 3 DNMTs and 9 other epigenetic enzymes. Nature of the data set: Enzyme kinetic study of epigenetic enzymes. The data set is classed as biochemical. The conditions noted are these: for effect on enzymatic activities: controls.
A short description of data set [3]: Plasma pharmacokinetics of radioactivity, intravenous dose. The conditions noted are these: single intravenous (bolus) dose 10 mg/kg, rats. The data set is classed as in vivo, male Sprague Dawley rats. From the text: (§1) The objectives of this study were to determine the plasma pharmacokinetics of [4-^14C]-25HC3S-derived radioactivity in male Sprague Dawley rats, determine the routes of elimination and excretion mass balance of [4-^14C]-25HC3S-derived radioactivity in male Sprague Dawley rats, determine the tissue distribution and tissue pharmacokinetics of [4-^14C]-25HC3S-derived radioactivity using quantitative whole body autoradiography methods in male Sprague Dawley and Long Evans rats following a single intravenous (bolus) dose, and to provide plasma, urine, and fecal homogenate samples for metabolite profiling of [4-^14C]-25HC3S-derived radioactivity.
(§2) Nine male Sprague Dawley rats (Group 1) were designated for the pharmacokinetic phase, 3 male Sprague Dawley rats (Group 2) for the excretion mass balance phase, and 7 male Sprague Dawley rats (Group 3) and 9 male Long Evans rats (Group 4) for the tissue distribution phase. All animals received a single intravenous dose of [^14C]-25HC3S at 10 mg/kg and a target radioactivity of 225 pCi/kg. Blood samples were collected from all Group 1 animals at approximately 0.083, 0.25, 0.5, 1, 2, 4, 8, 12, 24, 48, and 72 hours post-dose. Urine and feces were collected from all Group 2 animals periodically through 168 hours post-dose. […] Following blood collection, animals were euthanized by CO2 inhalation and carcasses frozen in a dry ice/hexane bath for processing by quantitative whole body autoradiography. Whole blood, plasma, urine, feces, cage rinse, and cage wash were analyzed for total radioactivity by liquid scintillation counting.

Data set [4] is described as follows: Excretion mass balance, intravenous dose. The data set is classed as in vivo, male Sprague Dawley rats. As to conditions: over 168 hours, intravenous 10 mg/kg, rats.
Excerpt: as §1
as §2, with “pCi/kg.” for “pCi/kg. Blood samples were collected from all Group 1 animals at approximately 0.083, 0.25, 0.5, 1, 2, 4, 8, 12, 24, 48, and 72 hours post-dose. Urine and feces were collected from all Group 2 animals periodically through 168 hours post-dose.”

The nature of data set [5]: Tissue distribution by quantitative whole body autoradiography, intravenous dose. The data set is classed as in vivo, male Sprague Dawley rats. The conditions noted are these: intravenous 10 mg/kg. The method, then: as §2, with “All animals received a single intravenous dose of [^14C]-25HC3S at 10 mg/kg and a target radioactivity of 225 pCi/kg.” left out
Data set [6] can be described thus: Tissue distribution by quantitative whole body autoradiography, intravenous dose, pigmented rats. The conditions noted are these: intravenous 10 mg/kg. The data set is classed as in vivo, male Long Evans rats.
Excerpt: as §1
as §2, with “pCi/kg.” for “pCi/kg. Blood samples were collected from all Group 1 animals at approximately 0.083, 0.25, 0.5, 1, 2, 4, 8, 12, 24, 48, and 72 hours post-dose. Urine and feces were collected from all Group 2 animals periodically through 168 hours post-dose.”

Data set [7] can be described thus: Plasma pharmacokinetics of radioactivity, oral dose. The data set is classed as in vivo. As to conditions: single oral (gavage) dose 75 mg/kg, rats.
Data set [8] can be described thus: Excretion mass balance, oral dose. The conditions noted are these: oral (gavage) 75 mg/kg, rats. The data set is classed as in vivo.
A short description of data set [9]: Tissue distribution by quantitative whole body autoradiography, oral dose. The data set is classed as in vivo, male Sprague Dawley rats.
The mark [10] stands for this setting: calculated using AUClast, oral 75 mg/kg.

With `C[C@H](CCCC(C)(C)O)[C@H]1CC[C@H]2[C@@H]3CC=C4C[C@@H](O)CC[C@]4(C)[C@H]3CC[C@]12C` [25HC, 25-Hydroxycholesterol, reference compound], the “amount in feces, % of total dose” value in data set [1] (0 to 168 hours post-dose pools) is on record as 1.9 % of total dose. Further, in data set [1] (2 hour post-dose plasma), the “relative observed intensity (ROI) in plasma” value is given as 37%.
For `C[C@@H](CO)CCC[C@@H](C)[C@H]1CC[C@H]2[C@@H]3CC=C4C[C@@H](O)CC[C@]4(C)[C@H]3CC[C@]12C` [27HC, 27-Hydroxycholesterol], the “effect on other enzymes (than DNMT-1)” value in data set [2] is on record as “no effect”.
Turning to `CC(C)CCC[C@@H](C)[C@H]1CC[C@H]2[C@@H]3CC=C4C[C@@H](OS(=O)(=O)O)CC[C@]4(C)[C@H]3CC[C@]12C` [Xol3S, 5-cholesten-3β-ol, 3-sulfate], the “effect on enzymatic activities” value in [2] is recorded as “did not significantly affect”.
With `CC(C)CCC[C@@H](C)[C@H]1CC[C@H]2[C@@H]3CC=C4C[C@@H](O)CC[C@]4(C)[C@H]3CC[C@]12C` [Xol, Cholesterol], the “effect on enzymatic activities” value in [2] is listed as “did not significantly affect”.
As to `C[C@H](CCCC(C)(C)O)[C@H]1CC[C@H]2[C@@H]3CC=C4[14CH2][C@@H](OS(=O)(=O)O)CC[C@]4(C)[C@H]3CC[C@]12C` [[4-^14C]-25HC3S], the “terminal elimination phase T1/2, plasma” value in data set [3] (PK phase) was 26.6 h. In [3] (total radioactivity), the “mean plasma C0” value was 25,900 ng-equiv./g and the “plasma AUClast” value is listed as 27,900 h*ng-equiv./g. In addition, in data set [4], the “dose recovered in urine, feces, and cage rinse” value is on record as “approximately 100.2%”; the “recovered radioactivity in feces” value is 83.0%. In data set [5] (calculated using AUClast), the “tissue:plasma ratio, liver” value is on record as 11.4 and the “tissue:plasma ratio, small intestine (wall)” value was 7.44. For the same compound, in [5] (Group 3), the “plasma:whole blood AUClast ratio” value is recorded as 0.79 and the “whole blood AUClast” value is given as 25,200 h*ng-equiv./g. For the same compound, the maximum plasma concentration in data set [5] (QWBA phase) was 12,400 ng-equiv./g. For the same compound, in data set [5] (derived radioactivity), the “AUClast in the liver” value is listed as ≤ 364,000 h-ng/g. The “tissue distribution of compound and/or metabolites” value in data set [5] (detected in all tissues except the eye (lens)) is on record as “broadly distributed”. In addition, the “plasma or whole blood concentrations versus Sprague Dawley rats” value in [6] (first 168 hours post-dose) is “no substantial difference”. Further, in data set [6], the “binding to pigmented or non-pigmented skin or the uveal tract” value is “no difference”. Besides, in [7], the “plasma AUClast” value was 96,400 h-ng equiv./g and the “terminal elimination phase T1/2” value is 27.3 h. In [8], the “dose recovered in urine, feces, and cage rinse” value is given as “approximately 94.5%”; the “recovered radioactivity in feces” value turned out to be 94.2%. In data set [9] (setting [10]), the “tissue:plasma ratio, adrenal gland” value is reported as 6.64; the “tissue:plasma ratio, liver” value was 6.96; the “tissue:plasma ratio, small intestine (wall)” value was 15.4. Moreover, in data set [9] (oral 75 mg/kg), the “Skin, thymus, prostate, and pituitary tissue concentrations” value is recorded as less than 3000 ng equiv./g; the “tissue Tmax” value is given as not above 6 hours post-dose. Moreover, the “tissue distribution of compound and/or metabolites” value in [9] (oral 75 mg/kg, detected in all tissues except the eye (lens)) was “broadly distributed”. Further, in data set [9] (oral (gavage) 75 mg/kg), the “plasma:whole blood AUClast ratio” value is 1.12 and the “whole blood AUClast” value is listed as 127,000 h-ng equiv./g.
For the compound desmosterol sulfate, in data set [1] (radiolabeled), the “detection in plasma or feces samples” value is listed as “not found”.
